Reference: US9260429B2, “Pyrido[3,4-B]indoles and methods of use” (Medivation Technologies, Inc., priority 2008, dated 2016)

Tests used:
[1] = target: T1, human recombinant serotonin (5-Hydroxytryptamine) 5-HT2A receptor (Homo sapiens, UniProt P28223); test: Serotonin 5-HT2A radioligand binding ([3H]Ketanserin); details: 1 h; read-out: Percent Inhibition of ligand binding Serotonin (1 μM ligand concentration) 5-HT2A
T1 construct: expressed in transfected cells; host or cells: CHO-K1 cells
Procedure: To evaluate in radioligand binding assays the activity of compounds of the invention, human recombinant serotonin (5-Hydroxytryptamine) 5-HT2A receptor expressed in Chinese hamster ovary (CHO-K1) cells (Bonhaus, D. W. et al. Br. J. Pharmacol. 115:622, 1995; Saucier, C. and Albert, P. R., J. Neurochem. 68:1998, 1997) in a 50 mM Tris-HCl buffer, pH 7.4, was used. Compounds of the invention were incubated with 0.5 nM [^3H]Ketanserin for 60 minutes at 25° C. Non-specific binding was estimated in the presence of 1 μM Mianserin. Receptor proteins were filtered and washed, the filters were then counted to determine [^3H]Ketanserin specifically bound. Compounds were screened at 1 μM or lower, using 1% DMSO as vehicle. Biochemical assay results are presented as the percent inhibition of specific binding in Table 5.

[2] = target: T2, human recombinant histamine H2 receptor (Homo sapiens, UniProt P25021); test: Histamine H2 radioligand binding ([125I]Aminopotentidine); details: 1 μM; inhibition of specific [125I]Aminopotentidine binding; read-out: Binding data (Percentage Inhibition) Histamine Binding (1 μM) H2
T2 construct: expressed in transfected cells; host or cells: CHO-K1 cells
Procedure: To evaluate in radioligand binding assays the activity of compounds of the invention, human recombinant histamine H2 receptor expressed in Chinese hamster ovary (CHO) K1 cells (Ruat, M., Proc. Natl. Acad. Sci. USA. 87(5):1658, 1990) in a 50 mM Phosphate buffer, pH 7.4 was used. Compounds of the invention were incubated with 0.1 nM [^125I]Aminopotentidine for 120 minutes at 25° C. Non-specific binding was estimated in the presence of 3 μM Tiotidine. Receptor proteins were filtered and washed, the filters were then counted to determine [^125I]Aminopotentidine specifically bound. Compounds were screened at 1 μM or lower, using 1% DMSO as vehicle. Biochemical assay results are presented as the percent inhibition of specific binding in Table 3.

[3] = target: T3, human recombinant histamine H1 receptor (Homo sapiens, UniProt P35367); test: Histamine H1 radioligand binding ([3H]Pyrilamine); details: 1 μM; read-out: Binding data (Percentage Inhibition) Histamine Binding (1 μM) H1
T3 construct: expressed in transfected cells; host or cells: CHO cells
Procedure: To evaluate in radioligand binding assays the activity of compounds of the invention, human recombinant histamine H1 receptor expressed in Chinese hamster ovary (CHO) cells (De Backer, M. D. et al., Biochem. Biophys. Res. Comm. 197(3):1601, 1993) in a modified Tris-HCl buffer (50 mM Tris-HCl, pH 7.4, 2 mM MgCl2, 100 mM NaCl, 250 mM Sucrose) was used. Compounds of the invention were incubated with 1.2 nM [^3H]Pyrilamine for 180 minutes at 25° C. Non-specific binding was estimated in the presence of 1 μM pyrilamine. Receptor proteins were filtered and washed, the filters were then counted to determine [^3H]Pyrilamine specifically bound. […] Biochemical assay results are presented as the percent inhibition of specific binding in Table 3.

[4] = target: T4, human recombinant serotonin (5-Hydroxytryptamine) 5-HT7 receptor (Homo sapiens, UniProt P34969); test: Serotonin 5-HT7 radioligand binding ([3H]LSD); details: 2 h; read-out: Percent Inhibition of ligand binding Serotonin (1 μM ligand concentration) 5-HT7
T4 construct: expressed in transfected cells; host or cells: CHO cells
Procedure: To evaluate in radioligand binding assays the activity of compounds of the invention, human recombinant serotonin (5-Hydroxytryptamine) 5-HT7 receptor expressed in Chinese hamster ovary (CHO) cells (Roth, B. L. et al., J. Pharmacol. Exp. Ther. 268:1403, 1994; Shen, Y. et al., J. Biol. Chem. 268:18200, 1993) in a modified Tris-HCl buffer (50 mM Tris-HCl, pH 7.4, 10 mM MgCl2, 0.5 mM EDTA) was used. Compounds of invention were incubated with 5.5 nM [^3H]Lysergic acid diethylamide (LSD) for 2 hours at 25° C. Non-specific binding was estimated in the presence of […] Serotonin (5-HT). Receptor proteins were filtered and washed, the filters were then counted to determine [^3H]LSD specifically bound. Compounds were screened at 1 μM or lower, using 1% DMSO as vehicle. Biochemical assay results are presented as the percent inhibition of specific binding in Table 5.

[5] = target: T5, human recombinant serotonin (5-Hydroxytryptamine) 5-HT6 receptor (Homo sapiens, UniProt P50406); test: Serotonin 5-HT6 radioligand binding ([3H]LSD); details: 2 h; read-out: Percent Inhibition of ligand binding Serotonin (1 μM ligand concentration) 5-HT6
T5 construct: expressed in transfected cells; host or cells: human HeLa cells
Procedure: To evaluate in radioligand binding assays the activity of compounds of the invention, human recombinant serotonin (5-Hydroxytryptamine) 5-HT6 receptor expressed in human HeLa cells (Monsma, F. J. Jr. et al., Mol. Pharmacol. 43:320, 1993) in a modified Tris-HCl buffer (50 mM Tris-HCl, pH 7.4, 150 mM NaCl, 2 mM Ascorbic Acid, 0.001% BSA) was used. Compounds of the invention were incubated with 1.5 nM [3H]Lysergic acid diethylamide (LSD) for 120 minutes at 37° C. Non-specific binding was estimated in the presence of […] Serotonin (5-HT). Receptor proteins were filtered and washed, the filters were then counted to determine [3H]LSD specifically bound. Compounds were screened at 1 μM or lower, using 1% DMSO as vehicle. Biochemical assay results are presented as the percent inhibition of specific binding in Table 5.

[6] = target: T6, human recombinant dopamine D2L receptor (Homo sapiens, UniProt P14416); test: Dopamine D2L radioligand binding ([3H]Spiperone); details: 2 h, 1 μM ligand conc.; read-out: Percent Inhibition of ligand binding Dopamine (1 μM ligand conc.) D2L
T6 construct: expressed in transfected cells; host or cells: CHO cells
Procedure: To evaluate in radioligand binding assays the activity of compounds of the invention, human recombinant dopamine D2L receptor expressed in Chinese hamster ovary (CHO) cells (Grandy, D. K. et al. Proc. Natl. Acad. Sci. USA. 86:9762, 1989; Hayes, G. et al., Mol. Endocrinol. 6:920, 1992) in a modified Tris-HCl buffer (50 mM Tris-HCl, pH 7.4, 1.4 mM Ascorbic Acid, 0.001% BSA, 150 mM NaCl) was used. Compounds of the invention were incubated with 0.16 nM [^3H]Spiperone for 120 minutes at 25° C. Non-specific binding was estimated in the presence of […] Haloperidol. Receptor proteins were filtered and washed, the filters were then counted to determine [^3H]Spiperone specifically bound. Compounds were screened at 1 μM or lower, using 1% DMSO as vehicle. Biochemical assay results are presented as the percent inhibition of specific binding in Table 4.

[7] = target: T7, human recombinant serotonin (5-Hydroxytryptamine) 5-HT2C receptor (Homo sapiens, UniProt P28335); test: Serotonin 5-HT2C radioligand binding ([3H]Mesulergine); details: 1 h; read-out: Percent Inhibition of ligand binding Serotonin (1 μM ligand concentration) 5-HT2C
T7 construct: expressed in transfected cells; host or cells: CHO-K1 cells
T7 sequence (P28335 33-458): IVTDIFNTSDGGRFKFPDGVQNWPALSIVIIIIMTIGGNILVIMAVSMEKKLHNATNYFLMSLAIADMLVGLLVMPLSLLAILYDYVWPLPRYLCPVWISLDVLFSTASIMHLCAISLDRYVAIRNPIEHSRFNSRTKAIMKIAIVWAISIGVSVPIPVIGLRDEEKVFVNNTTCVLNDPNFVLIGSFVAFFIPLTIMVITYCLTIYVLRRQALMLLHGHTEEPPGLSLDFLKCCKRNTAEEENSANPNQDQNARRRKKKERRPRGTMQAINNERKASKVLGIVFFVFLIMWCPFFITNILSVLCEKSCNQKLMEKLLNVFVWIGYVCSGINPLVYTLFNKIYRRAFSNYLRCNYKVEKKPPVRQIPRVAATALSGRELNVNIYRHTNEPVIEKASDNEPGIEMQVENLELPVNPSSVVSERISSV
Procedure: Compounds of the invention were incubated with 1 nM [^3H]Mesulergine for 60 minutes at 25° C. Non-specific binding was estimated in the presence of 1 μM Mianserin. Receptor proteins were filtered and washed, the filters were then counted to determine [^3H]Mesulergine specifically bound. […] Biochemical assay results are presented as the percent inhibition of specific binding in Table 5.

T6 sequence (P14416 whole entry): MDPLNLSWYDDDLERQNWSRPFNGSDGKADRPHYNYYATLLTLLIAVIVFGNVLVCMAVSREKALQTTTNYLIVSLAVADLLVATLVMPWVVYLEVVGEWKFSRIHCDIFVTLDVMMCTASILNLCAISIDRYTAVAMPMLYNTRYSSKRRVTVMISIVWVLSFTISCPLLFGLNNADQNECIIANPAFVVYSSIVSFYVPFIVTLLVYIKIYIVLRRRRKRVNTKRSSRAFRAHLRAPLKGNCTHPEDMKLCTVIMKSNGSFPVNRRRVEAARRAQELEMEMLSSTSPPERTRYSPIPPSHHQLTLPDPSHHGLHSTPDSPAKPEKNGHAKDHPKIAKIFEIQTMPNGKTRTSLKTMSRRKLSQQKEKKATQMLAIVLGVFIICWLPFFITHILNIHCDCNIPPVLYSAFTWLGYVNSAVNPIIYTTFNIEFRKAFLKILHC
T4 sequence (P34969 whole entry): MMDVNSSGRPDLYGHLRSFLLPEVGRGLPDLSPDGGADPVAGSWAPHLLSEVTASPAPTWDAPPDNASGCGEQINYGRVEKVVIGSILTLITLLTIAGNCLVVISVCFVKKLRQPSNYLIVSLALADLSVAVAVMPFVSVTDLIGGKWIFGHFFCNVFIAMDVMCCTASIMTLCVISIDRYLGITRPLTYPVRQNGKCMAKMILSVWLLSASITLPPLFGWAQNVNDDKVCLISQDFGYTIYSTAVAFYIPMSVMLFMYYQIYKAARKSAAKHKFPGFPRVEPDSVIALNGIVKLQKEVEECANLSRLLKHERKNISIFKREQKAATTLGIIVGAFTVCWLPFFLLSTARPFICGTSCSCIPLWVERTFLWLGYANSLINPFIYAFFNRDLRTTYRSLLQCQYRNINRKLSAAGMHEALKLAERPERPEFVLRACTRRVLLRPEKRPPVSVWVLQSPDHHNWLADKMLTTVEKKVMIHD
T1 sequence (P28223 whole entry): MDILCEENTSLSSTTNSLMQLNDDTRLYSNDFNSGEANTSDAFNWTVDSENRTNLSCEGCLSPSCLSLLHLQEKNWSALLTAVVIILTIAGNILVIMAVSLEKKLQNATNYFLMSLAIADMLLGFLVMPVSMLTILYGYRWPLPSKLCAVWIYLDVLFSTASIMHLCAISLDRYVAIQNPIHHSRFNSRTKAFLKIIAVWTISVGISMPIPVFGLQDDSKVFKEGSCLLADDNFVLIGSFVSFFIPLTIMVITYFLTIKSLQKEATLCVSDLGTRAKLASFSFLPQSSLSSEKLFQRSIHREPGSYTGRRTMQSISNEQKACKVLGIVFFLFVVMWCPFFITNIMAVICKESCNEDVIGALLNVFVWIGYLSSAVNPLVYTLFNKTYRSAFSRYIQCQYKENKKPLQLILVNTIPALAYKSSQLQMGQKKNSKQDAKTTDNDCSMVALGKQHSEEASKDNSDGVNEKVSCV
T3 sequence (P35367 whole entry): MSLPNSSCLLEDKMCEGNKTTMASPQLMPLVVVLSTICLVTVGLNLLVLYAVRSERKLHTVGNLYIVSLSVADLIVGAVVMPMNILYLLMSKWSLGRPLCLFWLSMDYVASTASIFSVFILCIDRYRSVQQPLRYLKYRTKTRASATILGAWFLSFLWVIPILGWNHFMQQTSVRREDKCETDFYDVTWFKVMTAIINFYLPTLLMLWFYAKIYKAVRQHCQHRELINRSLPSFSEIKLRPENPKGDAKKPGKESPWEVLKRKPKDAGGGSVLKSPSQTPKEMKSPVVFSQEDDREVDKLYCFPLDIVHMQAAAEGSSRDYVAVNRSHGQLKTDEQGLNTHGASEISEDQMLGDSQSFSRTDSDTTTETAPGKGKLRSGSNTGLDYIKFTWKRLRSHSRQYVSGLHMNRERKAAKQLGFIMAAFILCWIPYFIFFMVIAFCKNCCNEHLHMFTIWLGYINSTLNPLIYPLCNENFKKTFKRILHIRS
T5 sequence (P50406 whole entry): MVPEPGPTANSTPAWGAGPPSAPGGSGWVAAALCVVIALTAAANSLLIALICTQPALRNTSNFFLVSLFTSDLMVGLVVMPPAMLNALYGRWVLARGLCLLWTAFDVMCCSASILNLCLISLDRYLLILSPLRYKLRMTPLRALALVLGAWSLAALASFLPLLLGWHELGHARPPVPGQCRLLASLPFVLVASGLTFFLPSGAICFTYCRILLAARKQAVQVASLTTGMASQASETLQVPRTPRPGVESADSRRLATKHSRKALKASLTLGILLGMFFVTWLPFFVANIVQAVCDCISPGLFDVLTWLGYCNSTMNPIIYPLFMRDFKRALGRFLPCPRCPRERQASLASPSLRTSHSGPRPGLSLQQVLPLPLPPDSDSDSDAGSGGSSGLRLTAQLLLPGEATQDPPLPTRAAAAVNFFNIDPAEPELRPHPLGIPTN
T2 sequence (P25021 whole entry): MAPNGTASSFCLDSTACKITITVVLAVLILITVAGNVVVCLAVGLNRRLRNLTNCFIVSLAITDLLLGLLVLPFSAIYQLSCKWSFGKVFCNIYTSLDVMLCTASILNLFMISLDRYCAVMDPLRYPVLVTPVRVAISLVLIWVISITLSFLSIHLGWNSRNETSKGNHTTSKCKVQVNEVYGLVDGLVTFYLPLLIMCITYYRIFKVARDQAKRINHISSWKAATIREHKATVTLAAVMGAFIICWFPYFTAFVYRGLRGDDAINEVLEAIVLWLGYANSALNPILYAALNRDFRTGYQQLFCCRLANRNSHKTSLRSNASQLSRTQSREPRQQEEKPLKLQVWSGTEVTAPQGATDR

Compound	inhibition at 1 µM [1]	inhibition at 1 µM [2]	inhibition at 1 µM [3]	inhibition at 1 µM [4]	inhibition at 1 µM [5]	inhibition at 1 µM [6]	inhibition at 1 µM [7]
CCC1c2c(c3cc(Cl)ccc3n2/C=C(\C)c2cccnc2)CCN1C (stereo not shown) [Compound 108]	45%	12%	30%	62%	6%	-4%	60%
C/C(=C\n1c2c(c3cc(C)ccc31)CCN(C)C2)c1ccc(F)c(F)c1 [Compound 109, 9-(2-(3,4-difluorophenyl)prop-1-enyl)-2,6-dimethyl-2,3,4,9-tetrahydro-1H-pyrido[3,4-b]indole]	96%	67%	20%	96%	72%	12%	97%
C/C(=C\n1c2c(c3cc(Cl)ccc31)CCN(C)C2)c1ccc(F)c(F)c1 [Compound 110, 6-chloro-9-(2-(3,4-difluorophenyl)prop-1-enyl)-2-methyl-2,3,4,9-tetrahydro-1H-pyrido[3,4-b]indole]	93%	64%	25%	87%	73%	10%	97%
C/C(=C\n1c2c(c3cc(Cl)ccc31)CCN(C)C2C)c1ccc(F)c(F)c1 (stereo not shown) [Compound 111, 6-chloro-9-(2-(3,4-difluorophenyl)prop-1-enyl)-1,2-dimethyl-2,3,4,9-tetrahydro-1H-pyrido[3,4-b]indole]	79%	61%	60%	78%	88%	5%	93%
CCC1c2c(c3cc(Cl)ccc3n2/C=C(\C)c2ccc(F)c(F)c2)CCN1C (stereo not shown) [Compound 112, 6-chloro-9-(2-(3,4-difluorophenyl)prop-1-enyl)-1-ethyl-2-methyl-2,3,4,9-tetrahydro-1H-pyrido[3,4-b]indole]	82%	38%	33%	67%	61%	12%	94%
C/C(=C\n1c2c(c3cc(C)ccc31)CCN(C)C2)c1ccc(Cl)c(Cl)c1 [Compound 113, 9-(2-(3,4-dichlorophenyl)prop-1-enyl)-2,6-dimethyl-2,3,4,9-tetrahydro-1H-pyrido[3,4-b]indole]	99%	81%	26%	84%	49%	9%	91%
C/C(=C\n1c2c(c3cc(Cl)ccc31)CCN(C)C2)c1ccc(Cl)c(Cl)c1 [Compound 114, 6-chloro-9-(2-(3,4-dichlorophenyl)prop-1-enyl)-2-methyl-2,3,4,9-tetrahydro-1H-pyrido[3,4-b]indole]	93%	75%	30%	87%	42%	8%	95%
C/C(=C\n1c2c(c3cc(Cl)ccc31)CCN(C)C2C)c1ccc(Cl)c(Cl)c1 (stereo not shown) [Compound 115, 6-chloro-9-(2-(3,4-dichlorophenyl)prop-1-enyl)-1,2-dimethyl-2,3,4,9-tetrahydro-1H-pyrido[3,4-b]indole]	85%	71%	50%	74%	40%	0%	86%
CCC1c2c(c3cc(Cl)ccc3n2/C=C(\C)c2ccc(Cl)c(Cl)c2)CCN1C (stereo not shown) [Compound 116, 6-chloro-9-(2-(3,4-dichlorophenyl)prop-1-enyl)-1-ethyl-2-methyl-2,3,4,9-tetrahydro-1H-pyrido[3,4-b]indole]	83%	50%	8%	51%	38%	0%	85%
COc1ccc(/C(C)=C/n2c3c(c4cc(C)ccc42)CCN(C)C3)cc1F [Compound 121, 9-(2-(3-fluoro-4-methoxyphenyl)prop-1-enyl)-2,6-dimethyl-2,3,4,9-tetrahydro-1H-pyrido[3,4-b]indole]	96%	50%	9%	94%	33%	21%	102%
